Experimental data reported in patent publication US5756531A, “Iminoxy derivatives of indole and indene compounds as inhibitors of prostaglandin biosynthesis” (Abbott Laboratories, priority 1996, dated 1998).

Tests used:
[1] = biological target: T1, recombinant human PGHS-2 (prostaglandin hydroperoxidase -2, cyclooxygenase-2) (Homo sapiens, UniProt P35354); assay: Recombinant Human PGHS-2 enzyme assay (PGE2 production by EIA); type: biochemical; conditions: 60 min preincubation; 10 μM arachidonic acid
T1 construct: made in house; host or cells: baculovirus/Sf9 insect cells (microsomes)
T1 sequence (P35354 18-604): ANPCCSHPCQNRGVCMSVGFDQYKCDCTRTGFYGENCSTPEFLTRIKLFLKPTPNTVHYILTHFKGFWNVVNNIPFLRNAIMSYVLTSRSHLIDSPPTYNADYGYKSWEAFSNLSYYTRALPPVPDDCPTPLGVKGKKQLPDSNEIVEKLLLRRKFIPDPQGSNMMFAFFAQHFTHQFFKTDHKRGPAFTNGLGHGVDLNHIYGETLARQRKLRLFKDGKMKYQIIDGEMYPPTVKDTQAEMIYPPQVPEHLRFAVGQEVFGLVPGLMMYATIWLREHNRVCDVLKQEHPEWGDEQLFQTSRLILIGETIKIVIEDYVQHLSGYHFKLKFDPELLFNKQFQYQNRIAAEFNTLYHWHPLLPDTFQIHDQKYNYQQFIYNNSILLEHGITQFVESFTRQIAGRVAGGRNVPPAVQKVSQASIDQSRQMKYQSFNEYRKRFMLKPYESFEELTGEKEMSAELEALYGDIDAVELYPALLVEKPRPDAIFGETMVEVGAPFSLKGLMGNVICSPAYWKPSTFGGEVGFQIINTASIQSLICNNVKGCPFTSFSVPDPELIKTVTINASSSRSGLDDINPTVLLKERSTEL
Protocol: 2. recombinant human prostaglandin hydroperoxidase -2 (cyclooxygenase-2)
(§1) Compound dissolved in DMSO (3.3% v/v) was preincubated with microsomes from recombinant human PGHS-1 or PGHS-2 expressed in the baculovirus/Sf9 cell system (Gierse, J. K., Hauser, S. D., Creely, D. P., Koboldt, C., Rangwala, S., H., Isakson, P. C., and Seibert, K. Expression and selective inhibition of the constituitive and inducible forms of cyclooxygenase Biochem J. 1995, 305: 479.), together with the cofactors phenol (2 mM) and hematin (1 μM) for 60 minutes prior to the addition of 10 μM arachidonic acid. The reaction was allowed to run for 2.5 minutes at room temperature prior to quenching with HCl and neutralization with NaOH. PGE2 production in the presence and absence of the drug was determined by EIA analysis.
(§2) EIA reagents for prostaglandin determination were purchased from Perseptive Diagnostics, Cambridge, Mass. PGE2 levels in lavage fluids were determined after the samples were dried under nitrogen and reconstituted with assay buffer. PGE2 levels in enzyme assays or cell culture media were measured against standards prepared in the same milieu. The immunoassays were conducted as recommended by the manufacturer. The EIA was conducted in 96 well microtiter plates (Nunc Roskilde, Denmark) and optical density measured using a microplate reader (Vmax, Molecular Devices Corp., Menlo Park, Calif.).

[2] = biological target: T2, recombinant human PGHS-1 (prostaglandin hydroperoxidase -1, cyclooxygenase-1) (Homo sapiens, UniProt P23219); assay: Recombinant Human PGHS-1 enzyme assay (PGE2 production by EIA); type: biochemical; conditions: 60 min preincubation; 10 μM arachidonic acid
T2 construct: made in house; host or cells: baculovirus/Sf9 insect cells (microsomes)
T2 sequence (P23219 24-599): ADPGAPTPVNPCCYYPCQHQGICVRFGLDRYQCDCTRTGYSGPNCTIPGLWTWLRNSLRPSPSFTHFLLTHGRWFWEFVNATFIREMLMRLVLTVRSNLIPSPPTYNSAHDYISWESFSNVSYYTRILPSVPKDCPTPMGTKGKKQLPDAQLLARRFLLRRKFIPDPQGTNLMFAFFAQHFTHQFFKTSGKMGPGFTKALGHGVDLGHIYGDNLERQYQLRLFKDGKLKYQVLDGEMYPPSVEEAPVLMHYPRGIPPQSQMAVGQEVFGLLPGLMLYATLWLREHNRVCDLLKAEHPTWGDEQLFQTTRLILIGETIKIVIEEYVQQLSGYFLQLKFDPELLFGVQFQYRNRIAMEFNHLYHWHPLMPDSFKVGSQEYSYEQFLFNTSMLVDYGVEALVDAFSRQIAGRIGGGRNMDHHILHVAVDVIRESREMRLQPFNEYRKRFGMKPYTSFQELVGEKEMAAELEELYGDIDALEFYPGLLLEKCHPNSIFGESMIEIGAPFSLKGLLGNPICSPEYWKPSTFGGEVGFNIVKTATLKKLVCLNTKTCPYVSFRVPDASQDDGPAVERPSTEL
Protocol: 1. recombinant human prostaglandin hydroperoxidase -1 (cyclooxygenase-1)
as §1, §2

PGHS-1 = conditions: in words; cited from earlier work
PGHS-2 = conditions: in words; cited from earlier work

SMILES	IC50 [1] [µM]	IC50 [2] [µM]	inhibition of PGHS-1 (PGHS-1)	inhibition of PGHS-2 (PGHS-2)
COc1ccc2c(c1)c(CCON=C(C)/C=C/C(=O)O)c(C)n2C(=O)c1ccc(Cl)cc1 [Example 6, 4-oxopent-2-enoic acid-2-O-[2-(4-chlorobenzoyl-5-methoxy-2-methylindol-3-yl)ethyl] oxime]	0.07	52	–	–
COc1ccc2c(c1)c(CCON=CC(O)CO)c(C)n2C(=O)c1ccc(Cl)cc1 (stereo not drawn) [Example 7, glyceraldehyde-O-[2-(1-(4-chlorobenzoyl)-5-methoxy-2-methylindol-3-yl)ethyl] oxime]	0.06	24	–	–
COc1ccc2c(c1)c(CC(=O)O)c(C)n2C(=O)c1ccc(Cl)cc1 [Indomethacin, indomethacin]	–	–	inhibit both PGHS-1 and PGHS-2	inhibit both PGHS-1 and PGHS-2
CC(C)Cc1ccc(C(C)C(=O)O)cc1 (stereo not drawn) [ibuprofen]	–	–	inhibit both isozymes	inhibit both isozymes
COc1ccc2cc([C@H](C)C(=O)O)ccc2c1 [naproxen]	–	–	inhibit both isozymes	inhibit both isozymes
CC1=C(CC(=O)O)c2cc(F)ccc2/C1=C\c1ccc([S+](C)[O-])cc1 (stereo not drawn) [sulindac]	–	–	inhibit both PGHS-1 and PGHS-2	inhibit both PGHS-1 and PGHS-2
